Assay results reported in patent US20110039879A1, “METHODS FOR INCREASING WHITE BLOOD CELLS” (FibroGen ,Inc., priority 2007, published 2011).

Assays:
Format in all cases: in vivo, Swiss-Webster mice
monocytes = experiment: Monocytes by complete blood count on day 8, dosing day 1, 3, 5; conditions: mice, oral gavage, measured on day 8
[1] = system: total white blood cell (WBC); experiment: Total white blood cells by complete blood count on day 8, dosing day 1, 3, 5; conditions: mice, oral gavage, measured on day 8
neutrophils [2] = experiment: Neutrophils by complete blood count on day 8, dosing day 1, 3, 5; conditions: Mus musculus, Neutrophil, 192 h, mice, oral gavage, measured on day 8, read-out: Neutrophils % Increase Over Control; for change in vivo at 60 mg/kg: 60 mg/kg on day 1, day 3 and day 5; for change in vivo at 100 mg/kg: 100 mg/kg on day 1, day 3 and day 5
Description: To examine the effect of compounds and methods of the present invention on increasing white blood cells, the following studies were performed. In one series of experiments, male Swiss-Webster mice were administered various compounds of the present invention via oral gavage using a ball-tipped gavage needle. […] Animals were dosed once daily for 3 or 4 days. Six hours after the final dosing, 200 μl blood samples were collected and total white blood cell, neutrophil, and lymphocyte levels were measured by complete blood count (CBC) using a CellDyn cell analyzer (Abbott Laboratories).
In another series of experiments, male Swiss-Webster mice were administered various compounds (see Table 7 and Table 8) of the present invention via oral gavage using a ball-tipped gavage needle. […] Total WBC, neutrophil, lymphocyte, and monocyte levels were measured in mice as described above on day 8 following administration of compound on day 1, day 3, and day 5.

neutrophils [3] = experiment: as above; conditions: mice, oral gavage, measured on day 8
[4] = system: total white blood cell (WBC); experiment: Total white blood cells by complete blood count on day 8, dosing day 1, 3, 5; conditions: Mus musculus, 192 h, mice, oral gavage, measured on day 8, read-out: Total WBC % Increase Over Control; for change in vivo at 60 mg/kg: 60 mg/kg on day 1, day 3 and day 5; for change in vivo at 100 mg/kg: 100 mg/kg on day 1, day 3 and day 5
Outline: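 Male Swiss-Webster mice received test compound by oral gavage with a ball-tipped gavage needle on day 1, day 3 and day 5. On day 8, 200 μl of blood was collected and total white blood cell levels were determined by complete blood count on a CellDyn cell analyzer (Abbott Laboratories), expressed as percent change relative to control.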

lymphocytes = experiment: Lymphocytes by complete blood count on day 8, dosing day 1, 3, 5; conditions: mice, oral gavage, measured on day 8
Outline: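 Male Swiss-Webster mice received the compounds by oral gavage through a ball-tipped gavage needle on days 1, 3 and 5. On day 8, 200 μl blood samples were drawn and lymphocyte counts were obtained by complete blood count on a CellDyn cell analyzer (Abbott Laboratories). The change was expressed as percent increase relative to control animals.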

[5] = 200 mg/kg on day 1, day 3 and day 5
[6] = Mus musculus, Monocyte, 192 h, 60 mg/kg on day 1, day 3 and day 5, read-out: Monocytes % Increase Over Control
[7] = 60 mg/kg on day 1, day 3 and day 5
[8] = Mus musculus, Lymphocyte, 192 h, 60 mg/kg on day 1, day 3 and day 5, read-out: Lymphocytes % Increase Over Control
[9] = 100 mg/kg on day 1, day 3 and day 5
[10] = Mus musculus, Lymphocyte, 192 h, 100 mg/kg on day 1, day 3 and day 5, read-out: Lymphocytes % Increase Over Control

Structure (SMILES): COc1ccc(Oc2cccc3c(C#N)nc(C(=O)NCC(=O)O)c(O)c23)cc1 [Compound N, {[1-Cyano-4-hydroxy-5-(4-methoxy-phenoxy)-isoquinoline-3-carbonyl]-amino}-acetic acid]
- change in vivo at 200 mg/kg (monocytes; Mus musculus, Monocyte, 192 h, 200 mg/kg on day 1, day 3 and day 5, read-out: Monocytes % Increase Over Control): 157%
- Monocytes (monocytes; [5]): 0.2 10^3 cells/μl
- Total WBC [1, 5]: 12.0 10^3 cells/μl
- change in vivo at 200 mg/kg (neutrophils [2]; [5]): 60%
- Neutrophils (neutrophils [3]; [5]): 0.9 10^3 cells/μl
- change in vivo at 200 mg/kg [4, 5]: 125%
- change in vivo at 200 mg/kg (lymphocytes; Mus musculus, Lymphocyte, 192 h, 200 mg/kg on day 1, day 3 and day 5, read-out: Lymphocytes % Increase Over Control): 138%
- Lymphocytes (lymphocytes; [5]): 10.7 10^3 cells/μl

Structure (SMILES): N#Cc1nc(C(=O)NCC(=O)O)c(O)c2ccn(Cc3ccc(F)cc3)c12 [Compound O, {[7-Cyano-1-(4-fluoro-benzyl)-4-hydroxy-1H-pyrrolo[2,3-c]pyridine-5-carbonyl]-amino}-acetic acid]
- change in vivo at 60 mg/kg (monocytes; [6]): 140%
- Monocytes (monocytes; [7]): 0.2 10^3 cells/μl
- Total WBC [1, 7]: 11.9 10^3 cells/μl
- change in vivo at 60 mg/kg (neutrophils [2]): -3%
- Neutrophils (neutrophils [3]; [7]): 0.8 10^3 cells/μl
- change in vivo at 60 mg/kg [4]: 86%
- change in vivo at 60 mg/kg (lymphocytes; [8]): 102%
- Lymphocytes (lymphocytes; [7]): 10.9 10^3 cells/μl

Structure (SMILES): N#Cc1nc(C(=O)NCC(=O)O)c(O)c2ccn(Cc3ccc(-c4ccccc4)cc3)c12 [Compound AU, [(1-Biphenyl-4-ylmethyl-7-cyano-4-hydroxy-1H-pyrrolo[2,3-c]pyridine-5-carbonyl)-amino]-acetic acid]
- change in vivo at 60 mg/kg (monocytes; [6]): 118%
- Monocytes (monocytes; [7]): 0.3 10^3 cells/μl
- Total WBC [1, 7]: 22.6 10^3 cells/μl
- change in vivo at 60 mg/kg (neutrophils [2]): 63%
- Neutrophils (neutrophils [3]; [7]): 1.1 10^3 cells/μl
- change in vivo at 60 mg/kg [4]: 290%
- change in vivo at 60 mg/kg (lymphocytes; [8]): 332%
- Lymphocytes (lymphocytes; [7]): 21.0 10^3 cells/μl

Structure (SMILES): O=C(O)CNC(=O)c1ncc2cc(Oc3ccc(F)c(F)c3)ccc2c1O [Compound V, {[7-(3,4-Difluoro-phenoxy)-4-hydroxy-isoquinoline-3-carbonyl]-amino}-acetic acid]
- Monocytes (monocytes; [9]): 0.1 10^3 cells/μl
- Total WBC [1, 9]: 7.1 10^3 cells/μl
- change in vivo at 100 mg/kg (neutrophils [2]): 132%
- Neutrophils (neutrophils [3]; [9]): 0.8 10^3 cells/μl
- change in vivo at 100 mg/kg [4]: 145%
- change in vivo at 100 mg/kg (lymphocytes; [10]): 146%
- Lymphocytes (lymphocytes; [9]): 6.1 10^3 cells/μl

Structure (SMILES): Cc1ccc(Oc2cccc3c(C#N)nc(C(=O)NCC(=O)O)c(O)c23)cc1 [Compound BA, [(1-Cyano-4-hydroxy-5-p-tolyloxy-isoquinoline-3-carbonyl)-amino]-acetic acid]
- change in vivo at 100 mg/kg (monocytes; Mus musculus, Monocyte, 192 h, 100 mg/kg on day 1, day 3 and day 5, read-out: Monocytes % Increase Over Control): 20%
- Monocytes (monocytes; [9]): 0.2 10^3 cells/μl
- Total WBC [1, 9]: 24.7 10^3 cells/μl
- change in vivo at 100 mg/kg (neutrophils [2]): 38%
- Neutrophils (neutrophils [3]; [9]): 0.7 10^3 cells/μl
- change in vivo at 100 mg/kg [4]: 434%
- change in vivo at 100 mg/kg (lymphocytes; [10]): 514%
- Lymphocytes (lymphocytes; [9]): 23.8 10^3 cells/μl

Structure (SMILES): Cc1nc(C(=O)NCC(=O)O)c(O)c2cccc(Oc3ccccc3)c12 [Compound AC, [(4-Hydroxy-1-methyl-8-phenoxy-isoquinoline-3-carbonyl)-amino]-acetic acid]
- Monocytes (monocytes; [9]): 0.1 10^3 cells/μl
- Total WBC [1, 9]: 9.2 10^3 cells/μl
- change in vivo at 100 mg/kg (neutrophils [2]): 96%
- Neutrophils (neutrophils [3]; [9]): 1.0 10^3 cells/μl
- change in vivo at 100 mg/kg [4]: 94%
- change in vivo at 100 mg/kg (lymphocytes; [10]): 95%
- Lymphocytes (lymphocytes; [9]): 8.0 10^3 cells/μl
